27 compounds from patent US12643881B2, “Bicyclic amine CDK12 inhibitors” (Incyte Corporation, priority 2021, dated 2026) can be followed below.

In general, IC50 refers to the point on the concentration scale where inhibition reaches its midpoint.

For this assay, the target named is T1, CDK12 complexed with Cyclin K (Homo sapiens, UniProt Q9NYV4).
T1 construct: GST (N)
T1 sequence (Q9NYV4 whole entry): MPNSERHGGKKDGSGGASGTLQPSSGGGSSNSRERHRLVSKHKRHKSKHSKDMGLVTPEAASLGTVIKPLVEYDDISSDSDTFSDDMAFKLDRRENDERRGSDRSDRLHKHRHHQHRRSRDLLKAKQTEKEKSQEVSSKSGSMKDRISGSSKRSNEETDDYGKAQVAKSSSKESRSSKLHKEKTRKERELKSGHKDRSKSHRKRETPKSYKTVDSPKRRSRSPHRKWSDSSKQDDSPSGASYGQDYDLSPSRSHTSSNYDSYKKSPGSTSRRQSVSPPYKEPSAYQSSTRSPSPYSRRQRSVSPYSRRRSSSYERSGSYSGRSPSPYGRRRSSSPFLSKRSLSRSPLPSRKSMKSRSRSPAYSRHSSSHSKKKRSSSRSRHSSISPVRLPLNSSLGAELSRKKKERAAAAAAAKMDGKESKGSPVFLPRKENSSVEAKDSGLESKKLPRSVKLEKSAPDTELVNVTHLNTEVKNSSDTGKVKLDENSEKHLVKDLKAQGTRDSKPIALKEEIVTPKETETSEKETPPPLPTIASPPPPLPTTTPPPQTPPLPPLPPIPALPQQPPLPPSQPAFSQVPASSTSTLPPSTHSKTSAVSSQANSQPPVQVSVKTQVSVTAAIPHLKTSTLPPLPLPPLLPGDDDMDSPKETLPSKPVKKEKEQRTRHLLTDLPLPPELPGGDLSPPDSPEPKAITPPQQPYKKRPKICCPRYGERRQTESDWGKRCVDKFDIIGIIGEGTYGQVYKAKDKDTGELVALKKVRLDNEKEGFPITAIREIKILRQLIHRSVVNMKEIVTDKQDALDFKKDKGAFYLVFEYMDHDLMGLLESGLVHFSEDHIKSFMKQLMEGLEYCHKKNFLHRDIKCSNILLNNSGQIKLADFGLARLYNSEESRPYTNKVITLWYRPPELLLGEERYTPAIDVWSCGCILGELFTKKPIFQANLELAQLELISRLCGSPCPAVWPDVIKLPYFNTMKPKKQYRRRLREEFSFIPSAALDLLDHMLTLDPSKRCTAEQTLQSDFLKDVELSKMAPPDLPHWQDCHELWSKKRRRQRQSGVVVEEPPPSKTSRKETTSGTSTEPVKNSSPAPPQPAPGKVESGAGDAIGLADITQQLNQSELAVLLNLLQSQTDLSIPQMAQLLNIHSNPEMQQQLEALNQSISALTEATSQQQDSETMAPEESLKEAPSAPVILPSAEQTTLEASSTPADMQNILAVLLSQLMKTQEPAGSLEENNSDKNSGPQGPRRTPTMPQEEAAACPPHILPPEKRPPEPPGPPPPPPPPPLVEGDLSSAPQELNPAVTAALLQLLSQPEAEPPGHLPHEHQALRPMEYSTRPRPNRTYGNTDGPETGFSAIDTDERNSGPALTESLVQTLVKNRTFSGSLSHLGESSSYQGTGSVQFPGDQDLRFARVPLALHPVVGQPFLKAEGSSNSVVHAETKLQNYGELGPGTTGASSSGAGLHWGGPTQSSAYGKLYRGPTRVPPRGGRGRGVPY
T1 sequence (O75909 whole entry partner): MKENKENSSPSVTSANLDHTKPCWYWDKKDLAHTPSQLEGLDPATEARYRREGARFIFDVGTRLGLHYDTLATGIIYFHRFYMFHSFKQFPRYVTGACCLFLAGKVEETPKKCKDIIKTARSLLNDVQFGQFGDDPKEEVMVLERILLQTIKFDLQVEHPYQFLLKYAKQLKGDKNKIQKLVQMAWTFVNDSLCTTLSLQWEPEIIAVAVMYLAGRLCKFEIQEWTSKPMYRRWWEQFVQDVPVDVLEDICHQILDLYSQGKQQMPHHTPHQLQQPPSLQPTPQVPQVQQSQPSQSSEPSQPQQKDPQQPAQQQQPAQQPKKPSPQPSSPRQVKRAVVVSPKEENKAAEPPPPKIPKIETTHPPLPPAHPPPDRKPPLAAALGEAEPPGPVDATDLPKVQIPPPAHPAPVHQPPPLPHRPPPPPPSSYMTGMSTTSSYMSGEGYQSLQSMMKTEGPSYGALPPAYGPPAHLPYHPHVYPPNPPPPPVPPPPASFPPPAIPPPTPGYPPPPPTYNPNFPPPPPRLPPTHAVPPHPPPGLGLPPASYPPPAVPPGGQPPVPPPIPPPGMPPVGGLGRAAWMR
The assay can be described thus: CDK Enzymatic Assays (HTRF, LANCE Ultra kinase assay), Example A1. The assay is classed as biochemical. Particulars: enzyme pre-incubated with compounds for 60 minutes prior to addition of ATP (1 mM final) and Ulight-peptide; reaction 60-90 minutes at room temperature. The text has this: Example A1. CDK Enzymatic Assays
The following activity of the CDK enzymes in complex with their respective cyclins we assayed: CDK1 complexed with Cyclin B1; CDK2 complexed with Cyclin E1; CDK4 complexed with Cyclin D1; CDK6 complexed with Cyclin D1; CDK6 complexed with Cyclin D3; CDK9 complexed with Cyclin T1; CDK7 complexed with Cyclin H/MAT1; CDK2 complexed with Cyclin A2; CDK5 complexed with p35; CDK12 complexed with Cyclin K; CDK13 complexed with Cyclin K. These in vitro enzyme activity are assayed using homogeneous time-resolved energy transfer (HTRF), which measures phosphorylation of a peptide substrate. The LANCER Ultra kinase assay (PerkinElmer) uses a ULight™-labeled EIF4E-binding protein 1 (THR37/46) peptide (DYSTTPGGTLFSTTPGTRI (SEQ ID NO: 1)) substrate and a Europium-labeled anti-phospho-4E-BP1 antibody (CDK2, CDK1, CDK4, CDK6, CDK9, CDK12, CDK13) or ULight™-labeled Myelin Basic Protein peptide (VTPRTPPP (SEQ ID NO: 2)) substrate and a Europium-labeled anti-phospho-MBP antibody (CDK7). Each CDK enzyme activity assays utilized human CDK co-expressed as N-terminal GST-tagged protein with its full length cyclin partner using a baculovirus expression system.
Enzyme was pre-incubated with compounds for 30 minutes (CDK1,2,4,6,9) or 60 minutes (CDK7, CDK12, CDK13) prior to addition of ATP and Ulight-peptide (1 mM and 50 nM final, respectively), in assay buffer containing 50 mM HEPES pH 7.5, 1 mM EGTA, 10 mM MgCl2, 2 mM DTT, 0.05 mg/mL BSA, and 0.01% Tween 20. The reaction was then incubated for 60-90 minutes at room temperature. The reactions were stopped by the addition of EDTA and Europium labeled antibody, for a final concentration of 15 mM and 1.0-1.5 nM, respectively. HTRF signals were read after 15-120 minutes. A ratio of fluorescence transferred to the labeled substrate (665 nm) relative to fluorescence of the Europium donor (620 nm) represents the extent of phosphorylation. Ratios for treated wells were normalized to DMSO only (100% activity) and no enzyme (0% activity) controls. Normalized data was analyzed using a three or four parameter dose response curve to determine IC50 for each compound and are shown in Table A. Control reference inhibitors were included on each plate.
A general note: In TR-FRET formats the signal depends on donor and acceptor labels being close together.
`C=CC(=O)Nc1ccc2c(c1)C(=O)N([C@H]1CCC[C@@H](Nc3ncc(C)c(OC)n3)C1)C2` [Example 13, N-(2-((1S,3R)-3-((4-Methoxy-5-methylpyrimidin-2-yl)amino)cyclohexyl)-3-oxoisoindolin-5-yl)acrylamide]: the half-inhibitory concentration (IC50) was 50 to 500 nM.

On to `C=CC(=O)Nc1ccc2c(c1)C(=O)N([C@H]1CCC[C@@H](Nc3ncc(C#N)c(OC)n3)C1)C2` [Example 83, N-(2-((1S,3R)-3-((5-Cyano-4-methoxypyrimidin-2-yl)amino)cyclohexyl)-3-oxoisoindolin-5-yl)acrylamide], for which the IC50 was below 50 nM.

Take `C=CC(=O)Nc1cccc2c(N3CCC[C@@H](Nc4ncc(C#N)c(OC)n4)C3)nn(C)c12` [Example 35, (R)—N-(3-(3-((5-Cyano-4-methoxypyrimidin-2-yl)amino)piperidin-1-yl)-1-methyl-1H-indazol-7-yl)acrylamide]: the IC50 is below 50 nM.

For the compound `C=CC(=O)Nc1ccc2c(c1)C(=O)N([C@H]1CCC[C@@H](Nc3ncc(C=C)cn3)C1)C2` [Example 7, N-(3-Oxo-2-((1S,3R)-3-((5-vinylpyrimidin-2-yl)amino)cyclohexyl)isoindolin-5-yl)acrylamide], the IC50 is below 50 nM.

Regarding `C=CC(=O)N1C2CCC1CN(c1nccn3c(N4CCC[C@@H](Nc5ncc(C(F)(F)F)cn5)C4)ncc13)C2` [Example 109, 1-(3-(3-((R)-3-((5-(Trifluoromethyl)pyrimidin-2-yl)amino)piperidin-1-yl)imidazo[1,5-a]pyrazin-8-yl)-3,8-diazabicyclo[3.2.1]octan-8-yl)prop-2-en-1-one], the 50% inhibitory concentration (IC50) is below 50 nM.

On to `C=CC(=O)Nc1cc2nc(N3C[C@H](F)C[C@@H](Nc4ncc(C(F)(F)F)cn4)C3)n(C)c2cc1C(C)C` [Example 101, N-(2-((3R,5R)-3-Fluoro-5-((5-(trifluoromethyl)pyrimidin-2-yl)amino)piperidin-1-yl)-6-isopropyl-1-methyl-1H-benzo[d]imidazol-5-yl)acrylamide], for which the IC50 is below 50 nM.

`C=CC(=O)Nc1nc2cccc(N3CCC[C@@H](Nc4ncc(C#N)c(OC)n4)C3)n2n1` [Example 22, (R)—N-(5-(3-((5-Cyano-4-methoxypyrimidin-2-yl)amino)piperidin-1-yl)-[1,2,4]triazolo[1,5-a]pyridin-2-yl)acrylamide]: the half-maximal inhibitory concentration (IC50) was below 50 nM.

As for `C=CC(=O)Nc1cccc2c(N3CCC[C@@H](Nc4ncc(C#N)c(OC)n4)C3)noc12` [Example 28, (R)—N-(3-(3-((5-Cyano-4-methoxypyrimidin-2-yl)amino)piperidin-1-yl)benzo[d]isoxazol-7-yl)acrylamide], the 50% inhibitory concentration (IC50) was below 50 nM.

As for `C=CC(=O)Nc1nn(C)c2c(N3CC[C@@H](Nc4ncc(C#N)cn4)C3)cccc12` [Example 20, (R)—N-(7-(3-((5-Cyanopyrimidin-2-yl)amino)pyrrolidin-1-yl)-1-methyl-1H-indazol-3-yl)acrylamide], the half-maximal inhibitory concentration (IC50) was in the range of 50 to 500 nM.

For the compound `C=CC(=O)Nc1ccc2c(c1)C(=O)N([C@H]1CCC[C@@H](Nc3ncc(-c4cnn(C)c4)cn3)C1)C2` [Example 8, N-(2-((1S,3R)-3-((5-(1-Methyl-1H-pyrazol-4-yl)pyrimidin-2-yl)amino)cyclohexyl)-3-oxoisoindolin-5-yl)acrylamide], the half-inhibitory concentration (IC50) was above 500 nM.

With `CCOC(=O)/C=C/C(=O)Nc1ccc2c(c1)nc([C@H]1CCC[C@@H](Nc3ncc(C#N)c(OC)n3)C1)n2C` [Example 48, Ethyl (E)-4-((2-((1S,3R)-3-((5-Cyano-4-methoxypyrimidin-2-yl)amino)cyclohexyl)-1-methyl-1H-benzo[d]imidazol-5-yl)amino)-4-oxobut-2-enoate], the half-inhibitory concentration (IC50) is below 50 nM.

As for `C=C(Cl)C(=O)Nc1ccc2c(c1)nc([C@H]1CCC[C@@H](Nc3ncc(C#N)c(OC)n3)C1)n2C` [Example 80, 2-Chloro-N-(2-((1S,3R)-3-((5-cyano-4-methoxypyrimidin-2-yl)amino)cyclohexyl)-1-methyl-1H-benzo[d]imidazol-5-yl)acrylamide], the IC50 is below 50 nM.

Take `C=CC(=O)Nc1nc2cccc(N3CC[C@@H](Nc4ncc(C#N)c(OC)n4)C3)n2n1` [Example 23, (R)—N-(5-(3-((5-Cyano-4-methoxypyrimidin-2-yl)amino)pyrrolidin-1-yl)-[1,2,4]triazolo[1,5-a]pyridin-2-yl)acrylamide]: the IC50 was below 50 nM.

For the compound `CC#CC(=O)Nc1ccc2c(c1)nc([C@H]1CCC[C@@H](Nc3ncc(C#N)c(OC)n3)C1)n2C` [Example 54, N-(2-((1S,3R)-3-((5-Cyano-4-methoxypyrimidin-2-yl)amino)cyclohexyl)-1-methyl-1H-benzo[d]imidazol-5-yl)but-2-ynamide], the IC50 fell in the range of 50 to 500 nM.

With `C=CC(=O)Nc1ccc2c(c1)C(=O)N([C@H]1CCC[C@@H](Nc3cc(C)c(C#N)cn3)C1)C2` [Example 16, N-(2-((1S,3R)-3-((5-Cyano-4-methylpyridin-2-yl)amino)cyclohexyl)-3-oxoisoindolin-5-yl)acrylamide], the IC50 fell in the range of 50 to 500 nM.

With `C=CC(=O)Nc1cnc2c(N3CCC[C@@H](Nc4ncc(C#N)c(OC)n4)C3)nccn12` [Example 34, (R)—N-(8-(3-((5-Cyano-4-methoxypyrimidin-2-yl)amino)piperidin-1-yl)imidazo[1,2-a]pyrazin-3-yl)acrylamide], the half-inhibitory concentration (IC50) is below 50 nM.

As to `C=CC(=O)Nc1cccc2c1cnn2[C@H]1CCC[C@@H](Nc2ncc(C#N)c(OC)n2)C1` [Example 24, N-(1-((1S,3R)-3-((5-Cyano-4-methoxypyrimidin-2-yl)amino)cyclohexyl)-1H-indazol-4-yl)acrylamide], the concentration for half-maximal inhibition (IC50) is below 50 nM.

As to `C=CC(=O)Nc1ccc2c(c1)C(=O)N([C@H]1CCC[C@@H](Nc3ncc(C(F)(F)F)c(OC)n3)C1)C2` [Example 61, N-(2-((1S,3R)-3-((4-Methoxy-5-(trifluoromethyl)pyrimidin-2-yl)amino)cyclohexyl)-3-oxoisoindolin-5-yl)acrylamide], the 50% inhibitory concentration (IC50) was below 50 nM.

With `C=CC(=O)Nc1ccc2oc(N3CCC[C@@H](Nc4ncc(C#N)c(OC)n4)C3)nc2c1` [Example 36, (R)—N-(2-(3-((5-Cyano-4-methoxypyrimidin-2-yl)amino)piperidin-1-yl)benzo[d]oxazol-5-yl)acrylamide], the IC50 was below 50 nM.

With `C#Cc1cnc(N[C@@H]2CCC[C@H](N3Cc4ccc(NC(=O)C=C)cc4C3=O)C2)nc1` [Example 17, N-(2-((1S,3R)-3-((5-Ethynylpyrimidin-2-yl)amino)cyclohexyl)-3-oxoisoindolin-5-yl)acrylamide], the IC50 was below 50 nM.

`C=CC(=O)Nc1ccc2c(c1)nc(C(F)F)n2[C@H]1CCC[C@@H](Nc2ncc(C#N)cn2)C1` [Example 84, N-(1-((1S,3R)-3-((5-Cyanopyrimidin-2-yl)amino)cyclohexyl)-2-(difluoromethyl)-1H-benzo[d]imidazol-5-yl)acrylamide]: the IC50 is 50 to 500 nM.

Turning to `C=CC(=O)Nc1ccc2c(c1)nc([C@H]1CC[C@@H](Nc3ncc(C#N)cn3)C1)n2C` [Example 70, N-(2-((1S,3R)-3-((5-Cyanopyrimidin-2-yl)amino)cyclopentyl)-1-methyl-1H-benzo[d]imidazol-5-yl)acrylamide], the IC50 is below 50 nM.

As for `CC#CC(=O)Nc1nn(C)c2cc(N3CCC[C@@H](Nc4ncc(C#N)c(OC)n4)C3)ncc12` [Example 30, (R)—N-(6-(3-((5-Cyano-4-methoxypyrimidin-2-yl)amino)piperidin-1-yl)-1-methyl-1H-pyrazolo[4,3-c]pyridin-3-yl)but-2-ynamide], the IC50 is below 50 nM.

For `C=CC(=O)Nc1ccc2c(c1)nc([C@H]1CCC[C@@H](Nc3ncc(C#N)cn3)C1)n2C` [Example 74, N-(2-((1S,3R)-3-((5-Cyanopyrimidin-2-yl)amino)cyclohexyl)-1-methyl-1H-benzo[d]imidazol-5-yl)acrylamide], the concentration for half-maximal inhibition (IC50) is below 50 nM.

In the case of `C=CC(=O)Nc1ccc2c(c1)C(=O)N([C@H]1CCC[C@@H](Nc3ncc(Br)cn3)C1)C2` [Example 68, N-(2-((1S,3R)-3-((5-Bromopyrimidin-2-yl)amino)cyclohexyl)-3-oxoisoindolin-5-yl)acrylamide], the 50% inhibitory concentration (IC50) is below 50 nM.

Take `C=CC(=O)Nc1nn(C)c2cc(N3CC[C@@H](Nc4ncc(C#N)c(OC)n4)C3)ccc12` [Example 21, (R)—N-(6-(3-((5-Cyano-4-methoxypyrimidin-2-yl)amino)pyrrolidin-1-yl)-1-methyl-1H-indazol-3-yl)acrylamide]: the IC50 lay in the range of 50 to 500 nM.

Regarding `C=CC(=O)Nc1ccc2c(N3CCC[C@@H](Nc4ncc(C#N)c(OC)n4)C3)csc2c1` [Example 42, (R)—N-(3-(3-((5-Cyano-4-methoxypyrimidin-2-yl)amino)piperidin-1-yl)benzo[b]thiophen-6-yl)acrylamide], the IC50 fell in the range of 50 to 500 nM.
